Measurements: the NIST ThermoML archive (doi:10.1021/je049919e)

Columns and labels:
[1] = xn = mol fraction of the nth substance listed; conditions: Ring tensiometer
[2] = Ring tensiometer

OCCO [1,2-ethanediol] + CC1CCCC(O)C1
[1], x2 = 0
Conditions | surface tension liquid-gas [mN/m]
293.15 K | 48.55
298.15 K | 48.11
303.15 K | 47.58
308.15 K | 47.14
313.15 K | 46.79
318.15 K | 46.29
323.15 K | 45.99

CC1CCCCC1O (stereo not given) [2-methylcyclohexanol] + OCCO
surface tension liquid-gas [mN/m], [1]
Conditions | 293.15 K | 298.15 K | 303.15 K | 308.15 K | 313.15 K | 318.15 K | 323.15 K
x1 = 0.04 | 40.61 | 40.3 | 39.94 | 39.67 | 39.4 | 39.13 | 38.89
x1 = 0.105 | 36.13 | 35.89 | 35.62 | 35.32 | 35.07 | 34.81 | 34.56
x1 = 0.2 | 34.46 | 34.17 | 33.85 | 33.55 | 33.26 | 32.98 | 32.68
x1 = 0.307 | 33.49 | 33.2 | 32.88 | 32.58 | 32.22 | 31.94 | 31.63
x1 = 0.399 | 32.94 | 32.61 | 32.26 | 31.96 | 31.62 | 31.31 | 30.97
x1 = 0.514 | 32.38 | 32.03 | 31.68 | 31.33 | 30.98 | 30.69 | 30.36
x1 = 0.553 | 32.22 | 31.87 | 31.54 | 31.19 | 30.81 | 30.49 | 30.13
x1 = 0.76 | 31.72 | 31.36 | 30.97 | 30.61 | 30.29 | 29.91 | 29.52
x1 = 0.791 | 31.51 | 31.1 | 30.73 | 30.38 | 30 | 29.59 | 29.24
x1 = 0.892 | 31.2 | 30.78 | 30.39 | 30.05 | 29.67 | 29.27 | 28.87
x1 = 1 | 31.01 | 30.57 | 30.19 | 29.81 | 29.37 | 28.98 | 28.57

CC1CCCCC1O (stereo not given) [2-methylcyclohexanol]
[2]
Conditions | surface tension liquid-gas [mN/m]
293.15 K | 31.01
298.15 K | 30.57
303.15 K | 30.19
308.15 K | 29.81
313.15 K | 29.37
318.15 K | 28.98
323.15 K | 28.57

CC1CCC(O)CC1 (stereo not given) [4-methylcyclohexanol] + OCCO
surface tension liquid-gas [mN/m], [1]
Conditions | 293.15 K | 298.15 K | 303.15 K | 308.15 K | 313.15 K | 318.15 K | 323.15 K
x1 = 0.05 | 38.1 | 37.85 | 37.64 | 37.39 | 37.15 | 36.9 | 36.69
x1 = 0.097 | 34.38 | 34.18 | 33.98 | 33.78 | 33.6 | 33.4 | 33.21
x1 = 0.258 | 32.47 | 32.24 | 32.03 | 31.79 | 31.57 | 31.34 | 31.1
x1 = 0.329 | 31.48 | 31.24 | 30.99 | 30.74 | 30.48 | 30.26 | 30.01
x1 = 0.389 | 30.64 | 30.37 | 30.08 | 29.81 | 29.55 | 29.32 | 29.04
x1 = 0.535 | 30.35 | 30.05 | 29.77 | 29.48 | 29.23 | 28.96 | 28.68
x1 = 0.623 | 29.63 | 29.34 | 29.02 | 28.74 | 28.48 | 28.18 | 27.88
x1 = 0.768 | 29.21 | 28.92 | 28.6 | 28.29 | 28.02 | 27.73 | 27.4
x1 = 0.864 | 28.71 | 28.41 | 28.07 | 27.76 | 27.47 | 27.18 | 26.84
x1 = 0.899 | 28.07 | 27.75 | 27.43 | 27.11 | 26.77 | 26.45 | 26.15
x1 = 1 | 27.63 | 27.3 | 26.98 | 26.61 | 26.31 | 25.96 | 25.63

OCCO [1,2-ethanediol] + CC1CCC(O)CC1
[1], x2 = 0
Conditions | surface tension liquid-gas [mN/m]
293.15 K | 48.55
298.15 K | 48.11
303.15 K | 47.58
308.15 K | 47.14
313.15 K | 46.79
318.15 K | 46.29
323.15 K | 45.99

CC1CCC(O)CC1 (stereo not given) [4-methylcyclohexanol]
[2]
Conditions | surface tension liquid-gas [mN/m]
293.15 K | 27.63
298.15 K | 27.3
303.15 K | 26.98
308.15 K | 26.61
313.15 K | 26.31
318.15 K | 25.96
323.15 K | 25.63

OCCO [1,2-ethanediol]
[2]
Conditions | surface tension liquid-gas [mN/m]
293.15 K | 48.55
298.15 K | 48.11
303.15 K | 47.58
308.15 K | 47.14
313.15 K | 46.79
318.15 K | 46.29
323.15 K | 45.99

CC1CCCC(O)C1 (stereo not drawn) [3-methyl-1-cyclohexanol, (cis+trans)]
[2]
Conditions | surface tension liquid-gas [mN/m]
293.15 K | 27.82
298.15 K | 27.48
303.15 K | 27.12
308.15 K | 26.76
313.15 K | 26.4
318.15 K | 26.06
323.15 K | 25.7

OCCO [1,2-ethanediol] + CC1CCCCC1O
[1], x2 = 0
Conditions | surface tension liquid-gas [mN/m]
293.15 K | 48.55
298.15 K | 48.11
303.15 K | 47.58
308.15 K | 47.14
313.15 K | 46.79
318.15 K | 46.29
323.15 K | 45.99

CC1CCCC(O)C1 (stereo not drawn) [3-methyl-1-cyclohexanol, (cis+trans)] + OCCO
surface tension liquid-gas [mN/m], [1]
Conditions | 293.15 K | 298.15 K | 303.15 K | 308.15 K | 313.15 K | 318.15 K | 323.15 K
x1 = 0.05 | 36.72 | 36.51 | 36.29 | 36.07 | 35.88 | 35.66 | 35.44
x1 = 0.097 | 34.08 | 33.87 | 33.67 | 33.46 | 33.26 | 33.08 | 32.89
x1 = 0.258 | 31.57 | 31.25 | 30.97 | 30.7 | 30.42 | 30.15 | 29.91
x1 = 0.329 | 30.94 | 30.6 | 30.32 | 30.01 | 29.75 | 29.48 | 29.17
x1 = 0.389 | 30.57 | 30.23 | 29.98 | 29.65 | 29.38 | 29.09 | 28.76
x1 = 0.535 | 29.84 | 29.51 | 29.19 | 28.86 | 28.57 | 28.28 | 27.96
x1 = 0.623 | 29.39 | 29.05 | 28.75 | 28.43 | 28.14 | 27.82 | 27.42
x1 = 0.768 | 28.85 | 28.47 | 28.16 | 27.8 | 27.46 | 27.18 | 26.84
x1 = 0.864 | 28.43 | 28.02 | 27.68 | 27.34 | 27.03 | 26.69 | 26.33
x1 = 0.899 | 28.24 | 27.9 | 27.56 | 27.24 | 26.85 | 26.5 | 26.18
x1 = 1 | 27.82 | 27.48 | 27.12 | 26.76 | 26.4 | 26.06 | 25.7
